Test results published in patent US20210205264A1, “USE OF DELTA-TOCOTRIENOL FOR TREATING CANCER” (H. LEE MOFFITT CANCER CENTER & RESEARCH INSTITUTE INC., priority 2018, published 2021).

Experiments:
[1] = tested on: AOM induced rat colon cancer model; assay: AOM induced rat colon cancer model; format: in vivo, Fisher 344 rat
Excerpt: FIGS. 3A, 3B, 3C and 3D show the number of polyps (FIG. 3A) and cancer (FIG. 3C) with H&E stain of representative areas of polyp (FIG. 3B) and cancer (FIG. 3D) following no treatment (NT), treatment with vehicle (V), sulindac, and d-T3 in AOM-induced Fisher 344 rat model of colon carcinogenesis.
To confirm the CRC prevention activity of d-T3, the activity of d-T3 was investigated and compared this with sulindac, another established NSAID with chemoprevention activity against CRC in the AOM induced rat colon cancer model.

[2] = tested on: β-catenin; assay: β-catenin immunofluorescence and Western blot in CCSCs; format: cell-based, human
Excerpt: FIGS. 9A, 9B, 9C, and 9D show quantification of β-catenin in the nucleus and cytoplasm of CCSCs with confocal microscopy (FIGS. 9A & 9B) after treatment with vehicle, aspirin, d-T3, and aspirin+d-T3.
As noted above, stability of the β-catenin complex by inactivation of APC leads to stabilization and nuclear translocation of β-catenin and to transcriptional activation of β-catenin target genes such as c-Myc and cyclin D1. […] Furthermore, d-T3 inhibition of CCSCs is associated with the downregulation of β-catenin, c-Myc, cyclin D1, and survivin as measured by Western blot in CCSCs (FIG. 9D).

[3] = tested on: HCT-116; assay: Apoptosis induction in HCT-116; format: cell-based, human
[4] = tested on: SW-620; assay: Apoptosis induction in SW-620; format: cell-based, human
[5] = tested on: HT-29; assay: Apoptosis induction in HT-29; format: cell-based, human
[6] = target: T1, hCAS (Homo sapiens, UniProt P55060); assay: Streptavidin bead capture of hCAS from treated MiaPaCa-2 cells; format: binding; details: derived from biotinylated probes
T1 construct: endogenous in cells; host or cells: MiaPaCa-2 human pancreatic cancer cells
T1 sequence (P55060 1-971): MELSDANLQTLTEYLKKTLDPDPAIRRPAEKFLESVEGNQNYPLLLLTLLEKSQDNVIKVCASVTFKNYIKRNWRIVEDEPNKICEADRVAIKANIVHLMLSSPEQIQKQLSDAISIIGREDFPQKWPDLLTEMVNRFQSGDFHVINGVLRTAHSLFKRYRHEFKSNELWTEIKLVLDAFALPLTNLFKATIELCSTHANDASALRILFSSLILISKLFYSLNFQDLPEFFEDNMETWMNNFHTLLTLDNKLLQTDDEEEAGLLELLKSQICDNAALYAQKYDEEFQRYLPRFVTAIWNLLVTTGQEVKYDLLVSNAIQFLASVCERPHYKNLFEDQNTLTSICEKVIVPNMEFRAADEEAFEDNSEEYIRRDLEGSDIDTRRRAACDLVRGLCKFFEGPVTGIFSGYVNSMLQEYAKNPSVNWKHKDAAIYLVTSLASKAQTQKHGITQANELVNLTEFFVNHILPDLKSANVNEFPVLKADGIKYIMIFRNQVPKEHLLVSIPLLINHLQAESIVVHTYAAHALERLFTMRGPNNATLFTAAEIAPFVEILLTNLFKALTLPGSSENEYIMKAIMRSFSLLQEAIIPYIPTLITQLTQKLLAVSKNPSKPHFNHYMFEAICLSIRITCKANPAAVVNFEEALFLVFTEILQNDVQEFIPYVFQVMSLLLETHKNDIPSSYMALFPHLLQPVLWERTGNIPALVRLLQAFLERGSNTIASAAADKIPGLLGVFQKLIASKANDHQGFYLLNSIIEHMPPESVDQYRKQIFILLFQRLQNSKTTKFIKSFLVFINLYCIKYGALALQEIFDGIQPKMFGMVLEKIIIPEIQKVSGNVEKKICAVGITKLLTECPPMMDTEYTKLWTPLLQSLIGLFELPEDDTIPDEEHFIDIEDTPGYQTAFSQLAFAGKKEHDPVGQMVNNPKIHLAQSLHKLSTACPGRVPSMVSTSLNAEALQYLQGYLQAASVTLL
Procedure: To confirm that δ-T3 binds to hCAS in intact cells, biotinylated δ-T3 (B-δ-T3) was prepared by chemically coupling the —OH group of δ-T3 to the —COOH of biotin using a PEG-iodoactamide linker (FIG. 18).
MiaPaCa-2 human pancreatic cancer cells were treated for 24 hours with biotin alone (B), B-δ-T3 or B-TOCOPH. The cells were then lysed, and the lysates incubated with streptavidin beads, and the captured proteins processed for Western blotting.

[7] = target: T1, hCAS; assay: Competitive affinity-isolation of hCAS in MiaPaCa-2 cell lysate; format: binding; details: excess free compound
Procedure: This experiment used a synthetic biotin-δ-tocotrienol conjugate (shown below to inhibit growth activity of cultured MiaPaca-2 human pancreatic cancer cells) to confirm affinity-isolation of hCAS. To confirm that δ-T3 binds to hCAS in intact cells, biotinylated δ-T3 (B-δ-T3) was prepared by chemically coupling the —OH group of δ-T3 to the —COOH of biotin using a PEG-iodoactamide linker (FIG. 18). […] Affinity-isolation of hCAS was inhibited in the presence of free δ-tocotrienol but not with free δ-tocopherol.

[8] = target: T1, hCAS; assay: hCAS protein levels in MiaPaCa-2 cells; format: cell-based
[9] = tested on: HPNE cells; assay: Anchorage-independent growth / colony formation of HPNE cells over-expressing hCAS; format: cell-based; details: d-T3 concentration escalation

`CC(C)=CCC/C(C)=C/CC/C(C)=C/CC[C@]1(C)CCc2cc(O)cc(C)c2O1` [d-T3, δ-tocotrienol] was tested, and the cancer formation [1] was “almost completely blocked”, the “formation of intestinal polyps” value [1] was “significantly inhibited” and the “β-catenin, c-Myc, cyclin D1, and survivin by Western blot” value [2] was “downregulation”. The “amount of β-catenin translocated to the nucleus” value ([2]; immunofluorescence staining) was “significantly decreased”, the apoptosis [3] was “significantly induced apoptosis” and the apoptosis [4] was “significantly induced apoptosis”. The apoptosis [5] was “significantly induced apoptosis”, the “binds hCAS in intact pancreatic cancer cells” value [6] was “binds hCAS” and the “affinity-isolation of hCAS / hCAS binding to biotin-T3 in presence of free competitor” value [7] was “reduces hCAS binding”. For the same molecule, the “affinity-isolation of hCAS / hCAS binding to biotin-T3 in presence of free competitor” value ([7]; listed as δ-tocotrienol) was “inhibited”, the “time at which decrease of hCAS levels starts” value [8] was 6 h and the “time of maximum effect on hCAS levels” value [8] was 24 to 48 h. The hCAS levels ([8]; d-T3 50 uM) was “decreases the hCAS levels”, the “dose response on growth / colony formation” value [9] was “potent dose-dependent effect” and the “dose response on growth / colony formation” value ([9]; listed as δ-T3) was “robust dose-response”.
